The values that follow come from US20260217732A1, “WRN INHIBITOR” (SUZHOU PUHE BIOPHARMA CO., LTD., priority 2022, published 2026).

pIC50: −log10 of the molar value. Where two headings read alike, the source gives them in different places.

In data set [1] the test system is SW48 (MSI-H) colorectal cancer tumor cells. In words: In vivo efficacy, SW48 xenograft in nude mice. Also on record: species or system BALB/c nude mice. To be noted: QD, oral; for TGI: 21 days; for Tumor Volume D 1: day 1; for Tumor volume D 21: day 21. The method, then:
In vivo efficacy experiment in BALB/C nude mice. Details are as follows:
SW48 (MSI-H) colorectal cancer tumor cells were cultured (in an L15 medium with 10% fetal bovine serum), and inoculated into 6-8 week old female BALB/c nude mice (with body weight of about 20 g). All the mice were inoculated subcutaneously. The mice were raised in an SPF-grade experimental environment, and all the mice were free to take commercially certified standard diets. When the tumors grew to an average volume of about 160 mm^3 in mice, the test compound was orally administered daily. […] The tumor volume was measured with a two-dimensional caliper three times a week, and the animals were weighed every day. […] The volume calculation formula is: V=1/2a*b^2, where a represents the long diameter of the tumor and b represents the short diameter of the tumor.

The nature of a further data set: in vivo. To be noted: female, CD1, mouse.
For data set [2] the following is noted: female, CD1, mouse, in vivo.
Method: Mouse Pharmacokinetic Evaluation Experiment
CD1 female mice were used as test animals to be administered orally/intravenously (with oral dosage of 10 mg/kg or intravenous dosage of 2 mg/kg).
Experimental scheme: The oral administration group comprised 3 mice per group (Solvent: 10% Hβ-CD-pH7.4), and the intravenous group comprised 3 mice per group. […] The blood concentration in the plasma of mice was determined using the LC/MS/MS method after the oral or intravenous administration, respectively, and the collected data were calculated using the AB Sciex QTRAP 6500 software.
Data set [3] concerns SW48 colorectal cancer cells. In words: 2D antiproliferation on MSI-H SW48 cells, CTG, 5 days. It counts as cell-based. To be noted: for pIC50 / inhibition at 38.15 pM / inhibition at 0.000152588 µM / inhibition at 0.000610352 µM / inhibition at 0.00244141 µM / inhibition at 0.00976562 µM / inhibition at 0.0390625 µM / inhibition at 0.15625 µM / inhibition at 0.625 µM / inhibition at […] / inhibition at 10 µM: Homo sapiens; for pIC50: 120 h, SW48 MSI-H, 5 days; for inhibition at 38.15 pM: SW48, 0.038146973 nM; for inhibition at 0.000152588 µM: SW48, 0.152587891 nM; for inhibition at 0.000610352 µM: SW48, 0.610351563 nM; for inhibition at 0.00244141 µM: SW48, 2.44140625 nM; for inhibition at 0.00976562 µM: SW48, 9.765625 nM; for inhibition at 0.0390625 µM: SW48, 39.0625 nM; for inhibition at 0.15625 µM: SW48, 156.25 nM; for inhibition at 0.625 µM: SW48, 625 nM; for inhibition at […]: SW48, 2500 nM; for inhibition at 10 µM: SW48, 10000 nM. In a few lines:
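MSI-H SW48 colorectal cells in RPMI1640 with 10% FBS exposed to graded compound concentrations for 5 days at 37 °C, 5% CO2. Viability read as CellTiter-Glo ATP luminescence after 30 min.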

In the next data set the target is T1, WRN enzyme (Homo sapiens, UniProt Q14191).
T1 construct: 10 μL (2×) of WRN enzyme solution was added
T1 sequence (Q14191 whole entry): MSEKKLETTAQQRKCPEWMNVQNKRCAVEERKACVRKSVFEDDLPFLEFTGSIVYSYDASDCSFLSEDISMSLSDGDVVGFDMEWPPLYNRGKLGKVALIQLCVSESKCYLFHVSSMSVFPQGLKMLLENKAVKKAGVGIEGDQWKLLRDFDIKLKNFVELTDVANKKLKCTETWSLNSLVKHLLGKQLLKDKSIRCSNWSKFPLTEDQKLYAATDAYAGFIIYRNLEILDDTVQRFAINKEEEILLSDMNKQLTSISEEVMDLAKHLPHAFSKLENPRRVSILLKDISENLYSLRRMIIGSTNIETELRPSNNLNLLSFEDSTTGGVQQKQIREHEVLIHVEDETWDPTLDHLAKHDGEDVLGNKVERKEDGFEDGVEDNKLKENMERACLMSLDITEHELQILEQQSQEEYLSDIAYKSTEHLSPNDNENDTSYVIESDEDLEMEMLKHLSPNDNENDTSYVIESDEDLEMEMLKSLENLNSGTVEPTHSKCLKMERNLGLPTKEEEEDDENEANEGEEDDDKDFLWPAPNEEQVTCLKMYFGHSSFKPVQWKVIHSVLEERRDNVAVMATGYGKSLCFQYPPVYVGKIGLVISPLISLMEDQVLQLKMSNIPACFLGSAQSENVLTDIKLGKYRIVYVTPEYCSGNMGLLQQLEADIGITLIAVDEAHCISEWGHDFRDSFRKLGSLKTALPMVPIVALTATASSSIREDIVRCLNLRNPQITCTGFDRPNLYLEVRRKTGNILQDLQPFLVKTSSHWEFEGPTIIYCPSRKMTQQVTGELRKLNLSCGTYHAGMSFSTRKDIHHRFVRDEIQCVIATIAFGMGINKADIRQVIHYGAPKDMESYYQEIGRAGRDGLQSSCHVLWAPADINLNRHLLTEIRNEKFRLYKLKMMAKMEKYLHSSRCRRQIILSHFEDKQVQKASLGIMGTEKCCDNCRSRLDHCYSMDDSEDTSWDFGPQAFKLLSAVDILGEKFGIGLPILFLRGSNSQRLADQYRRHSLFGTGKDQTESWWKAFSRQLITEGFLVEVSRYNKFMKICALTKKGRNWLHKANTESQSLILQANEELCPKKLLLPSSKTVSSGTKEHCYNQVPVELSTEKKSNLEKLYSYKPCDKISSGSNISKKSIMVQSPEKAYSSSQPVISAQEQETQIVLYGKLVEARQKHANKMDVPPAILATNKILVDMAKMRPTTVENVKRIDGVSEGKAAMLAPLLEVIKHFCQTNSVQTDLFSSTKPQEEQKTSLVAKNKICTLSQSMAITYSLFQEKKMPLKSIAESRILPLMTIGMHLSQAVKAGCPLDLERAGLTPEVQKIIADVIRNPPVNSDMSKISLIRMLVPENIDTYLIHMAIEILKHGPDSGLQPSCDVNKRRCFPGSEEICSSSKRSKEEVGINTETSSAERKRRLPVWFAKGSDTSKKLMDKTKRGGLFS
Put plainly: WRN helicase hydrolysis (unwinding) of double-stranded DNA, fluorescence assay. To be noted: 30 min pre-incubation, 60 min reaction. The data set is classed as biochemical. The protocol: • The molecules of the present disclosure were tested for their activities on the WRN helicase hydrolysis of double-stranded DNA (Table 1).
A working solution to be tested and a buffer were prepared. The compound to be tested was dissolved in DMSO and subjected to 4× dilution (with 10 μM final concentration as the starting concentration). 0.2 μL of the solution of the compound to be tested was added to the 384-well plate and 10 μL (2×) of WRN enzyme solution was added. The solution was incubated in the dark for 30 minutes. Then, 10 μL of a substrate detection solution containing double-stranded DNA was added to initiate the reaction (the DNA has a length of 19 bp, and labeled with TAMRA and BHQ2 at 3′ and 5′-ends, respectively). The solution was incubated at room temperature for 60 minutes. The inhibitory activities (IC50) against WRN enzyme were calculated based on the change of Ex530/Em590 in the blank group (DMSO) and the compound group.

The subject of data set [4] is HT-29 colorectal cancer cells. Put plainly: 2D antiproliferation on MSS HT-29 cells, CTG, 5 days. It counts as cell-based. To be noted: Homo sapiens, 120 h, HT-29 MSS. In a few lines: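 HT-29 (MSS) colorectal cells in McCoy's 5A with 10% FBS were exposed to a range of compound concentrations for 5 days at 37° C, 5% CO2. Viability was read as CellTiter-Glo luminescence after 30 min, which reflects ATP content.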

Data set [5] in a line: Caco-2 membrane permeability assay. To be noted: human. The data set is classed as in vitro ADME. The protocol:
Membrane Permeability Evaluation Experiments: Caco-2 Assays
The molecules of the present disclosure were evaluated for their membrane permeability. […] Data would be used for apparent permeability (Papp).
wherein VA is the volume of the receptor pore (unit: mL), Area is the surface area of the membrane (0.143 cm^2 for Transwell-96 well permeable scaffolds), and time is the total transport time (unit: seconds).
Background: Caco-2 cells form a polarised layer with tight junctions and transporters.

Setting [6] is: read-out: Average Value/Inhibition Rate.
[7] abbreviates: read-out: Test 1/Inhibition Rate.
Where [8] appears, read: read-out: Test 2/Inhibition Rate.
Setting [9] is: Caco-2, apical pH 6.5, basolateral pH 7.4.

Turning to `CCc1c(N2CCN(C(=O)c3ncccc3O)CC2)c(=O)n2nc(-c3cccnc3)nc2n1CC(=O)Nc1ccc(C(F)(F)F)cc1C` [A1, reference compound], in data set [1] (20 mg/kg), the TGI was found to be 16%, the “Tumor Volume D 1” value came to 162 mm^3 and the “Tumor volume D 21” value worked out at 1672 mm^3. In data set [1] (50 mg/kg), the TGI is listed as 50%, the “Tumor Volume D 1” value worked out at 160 mm^3 and the “Tumor volume D 21” value was 1065 mm^3. For the same molecule, in “in vivo” (iv, 2 mg/kg), the AUC(0-t) (commonly the area under the concentration-time curve up to a stated or last time point) is 1190 ng·h/mL; the C0 came to 2520 ng/mL; the clearance (commonly a measure of how efficiently the substance is removed, as volume per time) came out at 28.1 mL/min/kg; the half-life (in general, how long it takes for the measured level to halve) was 1.3 h. In “in vivo” (po, 10 mg/kg), the AUC(0-t) worked out at 801 ng·h/mL; the highest concentration (Cmax) (in general, the highest concentration seen after dosing) came to 584 ng/mL; the Tmax (commonly the time from dosing to the highest level) is 0.5 h; the half-life was 1.4 h. For the same molecule, the F in data set [2] is listed as 14%.
For `CCc1c(N2CCN(C(=O)c3ncccc3O)CC2)c(=O)n2nc(-c3ccc(CO)s3)nc2n1CC(=O)Nc1ccc(C(F)(F)F)cc1Cl` [P9], in data set [3], the pIC50 (commonly the IC50 on a negative log10 scale, so that one unit is a factor of ten) is 7.27. This molecule showed a pIC50 on WRN enzyme of 8.92. Besides, in “in vivo” (iv, 2 mg/kg), the AUC(0-t) is 1230 ng·h/mL, the C0 amounted to 2840 ng/mL, the clearance is 27 mL/min/kg and the half-life is 0.9 h. Moreover, in “in vivo” (po, 10 mg/kg), the AUC(0-t) turned out to be 1520 ng·h/mL, the Cmax was determined as 695 ng/mL, the Tmax stood at 1 h and the half-life is 1.4 h. Besides, in data set [4], the pIC50 was less than 5.00. Besides, the F in data set [2] amounted to 25%.
Take `CCc1c(N2CCN(C(=O)c3ncnc(C)c3O)CC2)c(=O)n2nc(-c3cc4c(s3)COC4)nc2n1CC(=O)Nc1ccc(C(F)(F)F)cc1C` [P29]: the “inhibitory activity on SW48 cells” value in data set [3] (39 nM) is given as “high inhibitory activity”. This molecule also gave a pIC50 in data set [3] of 7.49. In data set [3] (setting [6]), the inhibition at 38.15 pM was found to be 18.3%, the inhibition at 0.000152588 µM came to 25.6%, the inhibition at 0.000610352 µM is 14.7% and the inhibition at 0.00244141 µM is 19.8%. Further, in data set [3] (setting [6]), the inhibition at 0.00976562 µM is 21.2%, the inhibition at 0.0390625 µM came to 70.9%, the inhibition at 0.15625 µM was 97.3% and the inhibition at 0.625 µM came out at 99.4%. In data set [3] (setting [6]), the inhibition at […] stood at 99% and the inhibition at 10 µM was 99.8%. Further, in data set [3] (setting [7]), the inhibition at 38.15 pM turned out to be 18%, the inhibition at 0.000152588 µM amounted to 26.1%, the inhibition at 0.000610352 µM was 19.4% and the inhibition at 0.00244141 µM was determined as 12.8%. In data set [3] (setting [7]), the inhibition at 0.00976562 µM was 17.4%, the inhibition at 0.0390625 µM amounted to 70.9%, the inhibition at 0.15625 µM was determined as 96.5% and the inhibition at 0.625 µM was 99.1%. Further, in data set [3] (setting [7]), the inhibition at […] turned out to be 99.1% and the inhibition at 10 µM worked out at 100%. For the same molecule, in data set [3] (setting [8]), the inhibition at 38.15 pM stood at 18.6%, the inhibition at 0.000152588 µM was 25.1%, the inhibition at 0.000610352 µM came to 9.96% and the inhibition at 0.00244141 µM was determined as 26.8%. Besides, in data set [3] (setting [8]), the inhibition at 0.00976562 µM stood at 25.1%, the inhibition at 0.0390625 µM worked out at 70.9%, the inhibition at 0.15625 µM stood at 98.1% and the inhibition at 0.625 µM was found to be 99.6%. In data set [3] (setting [8]), the inhibition at […] is 99% and the inhibition at 10 µM worked out at 99.6%. In data set [1] (120 mg/kg), the TGI is listed as 105%, the “Tumor Volume D 1” value was determined as 174 mm^3 and the “Tumor volume D 21” value is 36 mm^3. The negative-log IC50 (pIC50) against WRN enzyme was 8.68. This molecule also had a negative-log IC50 (pIC50) in data set [4] of less than 5.00.
In data set [3], `CCc1c(N2CCN(C(=O)c3ncnc(C)c3O)CC2)c(=O)n2nc(-c3cc4c(s3)COC4)nc2n1CC(=O)Nc1ccc(C(F)(F)F)c2ccoc12` [P57] showed a pIC50 of 7.47. This molecule also showed a pIC50 against WRN enzyme of 8.89. In “in vivo” (iv, 2 mg/kg), this molecule gave an AUC(0-t) of 3150 ng·h/mL, a C0 of 2920 ng/mL, a clearance of 10.5 mL/min/kg and a half-life of 1.2 h. Also, in “in vivo” (po, 10 mg/kg), the AUC(0-t) was 8930 ng·h/mL, the concentration peaked (Cmax) at 4260 ng/mL, the time of peak concentration (Tmax) was determined as 0.5 h and the half-life was 1.4 h. Moreover, the pIC50 in data set [4] was less than 5.00. Moreover, the F in data set [2] is on record as 57%.
Take `CCc1c(N2CCN(C(=O)c3ncnc(C)c3O)CC2)c(=O)n2nc(-c3cc4c(s3)COC4)nc2n1CC(=O)Nc1ccc(Br)c2ccoc12` [P59]: the negative logarithm of the IC50 (pIC50) in data set [3] was 7.41. Besides, the pIC50 on WRN enzyme was 8.82. In “in vivo” (iv, 2 mg/kg), this molecule gave an area under the curve AUC(0-t) of 2970 ng·h/mL, a C0 of 5260 ng/mL, a clearance of 11.2 mL/min/kg and a half-life of 0.9 h. Further, in “in vivo” (po, 10 mg/kg), the AUC(0-t) turned out to be 6070 ng·h/mL, the Cmax was found to be 2850 ng/mL, the Tmax was 0.25 h and the half-life was 1.3 h. In data set [4], this molecule showed a pIC50 of less than 5.00. The molecule also registered a F in data set [2] of 41%.
For `CCc1c(N2CCN(C(=O)c3ncnc(C)c3O)CC2)c(=O)n2nc(-c3cc4c(s3)COC4)nc2n1CC(=O)Nc1ccc(C(F)(F)F)c(C)c1C` [P62], in data set [3], the negative-log IC50 (pIC50) is 7.43. Also, the efflux ratio (in general, a quotient of directional permeabilities that is used to spot active efflux) in data set [5] (Caco-2) was found to be 11.6. Besides, in data set [5] (setting [9]), the Papp A→B (usually how fast a substance crosses the layer from the apical side) was found to be 1.54 ×10⁻⁶ cm/s and the Papp B→A (as a rule, how fast a substance crosses the layer from the basolateral side) was 17.9 ×10⁻⁶ cm/s.
